PubChem BioAssay (NCI)
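48-hour exposure; five concentrations; linearly interpolated endpoints. TGI: concentration producing complete growth inhibition.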

Experiments:
Assay in all cases: NCI-60 cell line screen, 48 h
DU-145 prostate = tested on: DU-145 prostate
MCF7 breast = tested on: MCF7 breast
HOP-92 NSCLC = tested on: HOP-92 NSCLC
BT-549 breast = tested on: BT-549 breast
ACHN renal = tested on: ACHN renal
OVCAR-4 ovarian = tested on: OVCAR-4 ovarian
LOX IMVI melanoma = tested on: LOX IMVI melanoma
M14 melanoma = tested on: M14 melanoma
A549 NSCLC = tested on: A549 NSCLC
SW-620 colon = tested on: SW-620 colon
UACC-257 melanoma = tested on: UACC-257 melanoma
SF-539 CNS = tested on: SF-539 CNS
786-0 renal = tested on: 786-0 renal
HS 578T breast = tested on: HS 578T breast
OVCAR-8 ovarian = tested on: OVCAR-8 ovarian
UACC-62 melanoma = tested on: UACC-62 melanoma
UO-31 renal = tested on: UO-31 renal
HT29 colon = tested on: HT29 colon
A498 renal = tested on: A498 renal
NCI-H23 lung = tested on: NCI-H23 lung
SNB-19 CNS = tested on: SNB-19 CNS
T-47D breast = tested on: T-47D breast
HL-60(TB) leukemia = tested on: HL-60(TB) leukemia
COLO 205 colon = tested on: COLO 205 colon
SK-MEL-28 melanoma = tested on: SK-MEL-28 melanoma
SNB-75 CNS = tested on: SNB-75 CNS
NCI-H460 lung = tested on: NCI-H460 lung
SK-OV-3 ovarian = tested on: SK-OV-3 ovarian
CAKI-1 renal = tested on: CAKI-1 renal
HCT-116 colon = tested on: HCT-116 colon
SF-268 CNS = tested on: SF-268 CNS
SK-MEL-5 melanoma = tested on: SK-MEL-5 melanoma
TK-10 renal = tested on: TK-10 renal
SN12C renal = tested on: SN12C renal
HCC-2998 colon = tested on: HCC-2998 colon
U251 CNS = tested on: U251 CNS
NCI-H226 lung = tested on: NCI-H226 lung
SR leukemia = tested on: SR leukemia
SF-295 CNS = tested on: SF-295 CNS
SK-MEL-2 melanoma = tested on: SK-MEL-2 melanoma
MDA-MB-231 breast = tested on: MDA-MB-231 breast
EKVX NSCLC = tested on: EKVX NSCLC
MDA-MB-435 = tested on: MDA-MB-435
K-562 leukemia = tested on: K-562 leukemia
MDA-N = tested on: MDA-N
NCI-H522 lung = tested on: NCI-H522 lung
CCRF-CEM leukemia = tested on: CCRF-CEM leukemia
KM12 colon = tested on: KM12 colon
HCT-15 colon = tested on: HCT-15 colon
MALME-3M melanoma = tested on: MALME-3M melanoma
NCI/ADR-RES ovarian = tested on: NCI/ADR-RES ovarian
IGROV1 ovarian = tested on: IGROV1 ovarian
MOLT-4 leukemia = tested on: MOLT-4 leukemia
OVCAR-5 ovarian = tested on: OVCAR-5 ovarian
PC-3 prostate = tested on: PC-3 prostate
HOP-62 NSCLC = tested on: HOP-62 NSCLC
OVCAR-3 ovarian = tested on: OVCAR-3 ovarian
RXF 393 renal = tested on: RXF 393 renal

## C=CC1(C)CCC2C(=CCC3C2(C)CC(O)C(O)C3(C)COC2OC(CO)C(O)C(O)C2O)C1 (configuration not stated)
DU-145 prostate
  TGI: > 100 µM
MCF7 breast
  TGI: > 100 µM
HOP-92 NSCLC
  TGI: > 100 µM
BT-549 breast
  TGI: > 100 µM
ACHN renal
  TGI: > 100 µM
OVCAR-4 ovarian
  TGI: > 100 µM
LOX IMVI melanoma
  TGI: > 100 µM
M14 melanoma
  TGI: > 100 µM
A549 NSCLC
  TGI: > 100 µM
SW-620 colon
  TGI: > 100 µM
UACC-257 melanoma
  TGI: > 100 µM
SF-539 CNS
  TGI: > 100 µM
786-0 renal
  TGI: > 100 µM
HS 578T breast
  TGI: > 100 µM
OVCAR-8 ovarian
  TGI: > 100 µM
UACC-62 melanoma
  TGI: > 100 µM
UO-31 renal
  TGI: > 100 µM
HT29 colon
  TGI: > 100 µM
A498 renal
  TGI: > 100 µM
NCI-H23 lung
  TGI: > 100 µM
SNB-19 CNS
  TGI: > 100 µM
T-47D breast
  TGI: > 100 µM
HL-60(TB) leukemia
  TGI: > 100 µM
COLO 205 colon
  TGI: > 100 µM
SK-MEL-28 melanoma
  TGI: > 100 µM
SNB-75 CNS
  TGI: > 100 µM
NCI-H460 lung
  TGI: > 100 µM
SK-OV-3 ovarian
  TGI: > 100 µM
CAKI-1 renal
  TGI: > 100 µM
HCT-116 colon
  TGI: > 100 µM
SF-268 CNS
  TGI: > 100 µM
SK-MEL-5 melanoma
  TGI: > 100 µM
TK-10 renal
  TGI: > 100 µM
SN12C renal
  TGI: > 100 µM
HCC-2998 colon
  TGI: > 100 µM
U251 CNS
  TGI: > 100 µM
NCI-H226 lung
  TGI: > 100 µM
SR leukemia
  TGI: > 100 µM
SF-295 CNS
  TGI: > 100 µM
SK-MEL-2 melanoma
  TGI: > 100 µM
MDA-MB-231 breast
  TGI: > 100 µM
EKVX NSCLC
  TGI: > 100 µM
MDA-MB-435
  TGI: > 100 µM
K-562 leukemia
  TGI: > 100 µM
MDA-N
  TGI: > 100 µM
NCI-H522 lung
  TGI: > 100 µM
CCRF-CEM leukemia
  TGI: > 100 µM
KM12 colon
  TGI: > 100 µM
HCT-15 colon
  TGI: > 100 µM
MALME-3M melanoma
  TGI: > 100 µM
NCI/ADR-RES ovarian
  TGI: > 100 µM
IGROV1 ovarian
  TGI: > 100 µM
MOLT-4 leukemia
  TGI: > 100 µM
OVCAR-5 ovarian
  TGI: > 100 µM
PC-3 prostate
  TGI: > 100 µM

## N=c1sc2ccccc2n1CCS (tested in a mixture with another compound)
DU-145 prostate
  TGI: 46 µM
MCF7 breast
  TGI: 25.6 µM
HOP-92 NSCLC
  TGI: 38.4 µM
BT-549 breast
  TGI: 48.4 µM
ACHN renal
  TGI: 31.7 µM
OVCAR-4 ovarian
  TGI: 46.9 µM
HOP-62 NSCLC
  TGI: 39.8 µM
LOX IMVI melanoma
  TGI: 30.5 µM
M14 melanoma
  TGI: 30.6 µM
A549 NSCLC
  TGI: 37.3 µM
SW-620 colon
  TGI: > 100 µM
UACC-257 melanoma
  TGI: 45.8 µM
SF-539 CNS
  TGI: 19.3 µM
786-0 renal
  TGI: 35.8 µM
HS 578T breast
  TGI: > 100 µM
OVCAR-8 ovarian
  TGI: 31.8 µM
UACC-62 melanoma
  TGI: 26.9 µM
UO-31 renal
  TGI: 25.8 µM
OVCAR-3 ovarian
  TGI: 40.9 µM
HT29 colon
  TGI: 37.1 µM
A498 renal
  TGI: 33.2 µM
NCI-H23 lung
  TGI: 32.3 µM
SNB-19 CNS
  TGI: 37.6 µM
T-47D breast
  TGI: > 100 µM
HL-60(TB) leukemia
  TGI: 66.9 µM
COLO 205 colon
  TGI: 27.5 µM
SK-MEL-28 melanoma
  TGI: 41.4 µM
SNB-75 CNS
  TGI: > 100 µM
NCI-H460 lung
  TGI: 27.5 µM
SK-OV-3 ovarian
  TGI: 53.6 µM
CAKI-1 renal
  TGI: 45.8 µM
HCT-116 colon
  TGI: 30.5 µM
SF-268 CNS
  TGI: 49.1 µM
SK-MEL-5 melanoma
  TGI: 28 µM
TK-10 renal
  TGI: 48.6 µM
SN12C renal
  TGI: 59.4 µM
HCC-2998 colon
  TGI: 30.8 µM
U251 CNS
  TGI: 29.1 µM
NCI-H226 lung
  TGI: 35.3 µM
SF-295 CNS
  TGI: 42 µM
SK-MEL-2 melanoma
  TGI: 45.5 µM
MDA-MB-231 breast
  TGI: 35.9 µM
EKVX NSCLC
  TGI: 62.3 µM
MDA-MB-435
  TGI: 36.3 µM
K-562 leukemia
  TGI: 44.7 µM
MDA-N
  TGI: > 100 µM
NCI-H522 lung
  TGI: 45.4 µM
RXF 393 renal
  TGI: 48.5 µM
CCRF-CEM leukemia
  TGI: > 100 µM
KM12 colon
  TGI: 35.5 µM
HCT-15 colon
  TGI: 34.6 µM
MALME-3M melanoma
  TGI: 37.6 µM
NCI/ADR-RES ovarian
  TGI: 45.3 µM
IGROV1 ovarian
  TGI: 27.5 µM
MOLT-4 leukemia
  TGI: 8.45 µM
OVCAR-5 ovarian
  TGI: 57.3 µM
PC-3 prostate
  TGI: > 100 µM
